Five compounds from patent EP4745153A1, “GLP-1, GIP AND GCG RECEPTOR […] USE THEREOF” (Jiangsu Hengrui Pharmaceuticals Co., Ltd., priority 2023, dated 2025) can be followed below.

Starred links: 1 amine or outer side, 2 acyl side, 3 side chain; linkers in the order of their positions; H or OH if unused. Non-standard residues stand in square brackets, D forms with d. Residues, ends and D or L forms follow the SMILES beside them. Groups on a side chain read outwards from the residue. ξ: configuration not given here. *: point of attachment. C20 diacid = O=C(O)CCCCCCCCCCCCCCCCCCC(=O)*; γGlu = O=C(O)[C@H](CCC(=O)[*:2])N[*:1]; αMeL = CC(C)C[C@](C)(N)C(=O)O; αMeK = C[C@](N)(CCCCN)C(=O)O; ξαMeL = CC(C)CC(C)(N)C(=O)O; AEEA = NCCOCCOCC(=O)O; Aib = CC(C)(N)C(=O)O

For one data set, the target named is T1, human GLP-1R (Homo sapiens, UniProt P43220).
T1 construct: expressed in transfected cells; host or cells: CHO-K1 clonal cell line
T1 sequence (P43220 24-463): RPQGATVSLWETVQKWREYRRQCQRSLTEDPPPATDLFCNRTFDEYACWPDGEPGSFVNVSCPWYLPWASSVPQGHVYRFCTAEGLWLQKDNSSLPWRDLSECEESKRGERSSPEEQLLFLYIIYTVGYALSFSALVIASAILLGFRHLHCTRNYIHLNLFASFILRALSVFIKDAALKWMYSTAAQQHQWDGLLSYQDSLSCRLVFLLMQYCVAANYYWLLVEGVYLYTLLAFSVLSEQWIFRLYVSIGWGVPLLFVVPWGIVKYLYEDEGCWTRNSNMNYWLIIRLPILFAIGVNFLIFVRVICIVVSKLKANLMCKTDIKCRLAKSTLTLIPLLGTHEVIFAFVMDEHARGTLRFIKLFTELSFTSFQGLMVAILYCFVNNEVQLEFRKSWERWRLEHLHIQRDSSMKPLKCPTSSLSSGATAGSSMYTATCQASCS
Nature of the data set: cAMP HTRF agonist activity assay in CHO-K1 cells expressing GLP-1R. The class given is cell-based. On the procedure:
(§1) Functional activity was determined in CHO-K1 clonal cell lines expressing GIPR, GLP-1R, and GCGR. […] Each recipient cell (5000 cells/well) was added to an SV 96-well plate (Cisbio, 66PL96025) and incubated with the prepared polypeptide at 37°Cfor 30 min. The resulting increase in intracellular cAMP was quantitatively measured using the cAMP-GS dynamic HTRF assay kit (Cisbio, 62AM4PEJ). Briefly, the intracellular cAMP levels were determined by adding cAMP-d2 conjugate in cell lysis buffer, followed by the antibody anti-cAMP-Eu cryptate (also in cell lysis buffer).
(§2) Using the maximum response percentage vs. the added polypeptide concentration, the relative EC50 values were derived through nonlinear regression analysis and fitted to a four-parameter logarithmic equation. For specific data, refer to Tables 7-1 to 7-8 below. […]
On the technique in general: Time-resolved FRET reads energy transfer from a long-lived donor to a nearby acceptor.

Another data set concerns the target T2, human GIPR (Homo sapiens, UniProt P48546).
T2 construct: expressed in transfected cells; host or cells: CHO-K1 clonal cell line
T2 sequence (P48546 22-466): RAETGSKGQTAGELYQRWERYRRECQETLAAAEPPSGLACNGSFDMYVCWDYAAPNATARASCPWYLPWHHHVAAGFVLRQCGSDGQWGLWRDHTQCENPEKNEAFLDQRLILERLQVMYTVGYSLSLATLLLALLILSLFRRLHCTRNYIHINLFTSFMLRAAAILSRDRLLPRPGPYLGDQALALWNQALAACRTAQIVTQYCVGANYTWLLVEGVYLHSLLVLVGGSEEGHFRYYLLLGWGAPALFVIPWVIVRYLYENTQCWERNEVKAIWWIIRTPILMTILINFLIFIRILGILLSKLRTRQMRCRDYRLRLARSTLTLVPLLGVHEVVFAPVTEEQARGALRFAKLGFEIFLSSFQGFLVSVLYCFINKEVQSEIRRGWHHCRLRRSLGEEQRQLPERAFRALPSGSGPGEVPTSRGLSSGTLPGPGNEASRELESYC
The data set can be described thus: cAMP HTRF agonist activity assay in CHO-K1 cells expressing GIPR. Also: 5% FBS, 0.1% Casein. Type of data set: cell-based. As to conditions: read-out: Activity against human GIPR (EC50 nM). On the procedure: as §1, §2

Data set [1] in a line: Pharmacokinetics in mice after single intravenous injection. On the set-up: species or system C57 mice. As to conditions: male, C57, mouse, in vivo, iv. On the procedure: Male C57 mice were used as test animals. The target compound was administered via a single intravenous injection, and the pharmacokinetic characteristics of the compound in C57 mice in vivo (plasma) were determined.
Male C57 mice, weighing approximately 25g, aged 4-6 weeks. After preparing the polypeptide compound solution using 1×PBS dissolving solution, the compound was administered intravenously at a dose of 200 nmol/kg, where each compound was administered to 3 animals. Blood samples of 60 µL were collected at 5 min, 15 min, 0.5 h, 1 h, 2 h, 4 h, 6 h, 24 h, 48 h and 72 h after the infusion was completed and transferred to centrifuge tubes containing EDTA-K2 anticoagulant. Whole blood samples were centrifuged at 4000 g for 5 min at 4°C. Plasma was separated and plasma samples were frozen and stored at -80 °C.
Sample pretreatment method: 30 µL of plasma samples was taken, and 120 µL of 0.1% formic acid in methanol containing 1 ng/mL internal standard verapamil was added. The mixture was vortexed for 5 min, and centrifuged at 10000 rpm for 10 min at low temperature. 70 µL of supernatant was taken, and 70 µL of water was added and mixed well. Analysis was performed by LC-MS instrument.
LC-MS analysis method: (1) chromatographic conditions: mobile phases A and B: 0.1% formic acid in water and 0.1% formic acid in acetonitrile, respectively; gradient elution mode; flow rate: 0.5 mL/min; injection volume: 10 µL; chromatographic column: nanomicro Unisil C18aq (4.6 mm × 150 mm, 5 µm); column temperature: 40°C. (2) Mass spectrometry conditions: For mass spectrometry, an electrospray ionization source (ESI), positive ion analysis mode, and multiple reaction monitoring (MRM) scanning mode were used.
For data processing, SCIEX OS (Version 2.1.6) software was used to quantify blood drug concentration data and PKSolver (Version 2.0) software was used to calculate pharmacokinetic parameters.

Regarding `CC[C@H](C)[C@H](NC(=O)[C@H](CC(C)C)NC(=O)[C@H](Cc1c[nH]c2ccccc12)NC(=O)[C@H](CCC(=O)O)NC(=O)[C@@H](NC(=O)[C@H](Cc1ccccc1)NC(=O)[C@H](CCC(=O)O)NC(=O)[C@H](CCC(N)=O)NC(=O)[C@H](C)NC(=O)[C@H](C)NC(=O)[C@H](CCCCN)NC(=O)[C@H](CCCCNC(=O)COCCOCCNC(=O)COCCOCCNC(=O)CC[C@H](NC(=O)CCCCCCCCCCCCCCCCCCC(=O)O)C(=O)O)NC(=O)[C@H](CCC(=O)O)NC(=O)[C@H](CC(C)C)NC(=O)[C@H](Cc1ccc(O)cc1)NC(=O)[C@](C)(CCCCN)NC(=O)[C@H](CO)NC(=O)[C@H](Cc1ccc(O)cc1)NC(=O)[C@H](CC(=O)O)NC(=O)[C@H](CO)NC(=O)[C@@H](NC(=O)[C@H](Cc1ccccc1)NC(=O)[C@@H](NC(=O)CNC(=O)[C@H](Cc1c[nH]cn1)NC(=O)C(C)(C)NC(=O)[C@@H](N)Cc1c[nH]cn1)[C@@H](C)O)[C@@H](C)O)C(C)C)C(=O)N[C@@H](CCC(=O)O)C(=O)NCC(=O)NCC(=O)N1CCC[C@H]1C(=O)N[C@@H](CO)C(=O)N[C@@H](CO)C(=O)NCC(=O)N[C@@H](C)C(=O)N1CCC[C@H]1C(=O)N1CCC[C@H]1C(=O)N1CCC[C@H]1C(=O)N[C@@H](CO)C(N)=O` [Compound 0115] (H-H[Aib]HGTFTSDYS[αMeK]YLEK([AEEA-AEEA-γGlu-C20 diacid])KAAQEFVEWLIEGGPSSGAPPPS-NH2), the EC50 (in general, the midpoint of the concentration-response curve) at human GLP-1R was 23 pM.

As for `CC[C@H](C)[C@H](NC(=O)[C@H](CO)NC(=O)[C@H](CC(C)C)NC(=O)[C@H](CC(=O)O)NC(=O)[C@H](CO)NC(=O)[C@@H](NC(=O)[C@H](Cc1ccccc1)NC(=O)[C@@H](NC(=O)CNC(=O)[C@H](Cc1c[nH]cn1)NC(=O)C(C)(C)NC(=O)[C@@H](N)Cc1c[nH]cn1)[C@@H](C)O)[C@@H](C)O)C(=O)N[C@@H](CC(C)C)C(=O)N[C@@H](CC(C)C)C(=O)N[C@@H](CCC(=O)O)C(=O)N[C@@H](CCCCNC(=O)COCCOCCNC(=O)COCCOCCNC(=O)CC[C@H](NC(=O)CCCCCCCCCCCCCCCCCCC(=O)O)C(=O)O)C(=O)N[C@@H](CCC(N)=O)C(=O)N[C@@H](C)C(=O)N[C@@H](C)C(=O)NC1(C(=O)N[C@@H](CCC(=O)O)C(=O)N[C@@H](Cc2ccccc2)C(=O)N[C@H](C(=O)N[C@@H](CCC(=O)O)C(=O)N[C@@H](Cc2c[nH]c3ccccc23)C(=O)N[C@@H](CC(C)C)C(=O)N[C@@H](CC(C)C)C(=O)N[C@@H](C)C(=O)N[C@H](CCC(=O)O)C(=O)NCC(=O)N2CCC[C@H]2C(=O)N[C@@H](CO)C(=O)N[C@@H](CO)C(=O)NCC(=O)N[C@@H](C)C(=O)N2CCC[C@H]2C(=O)N2CCC[C@H]2C(=O)N2CCC[C@H]2C(=O)N[C@@H](CO)C(N)=O)C(C)C)CCC1` [Compound 0145], the EC50 on human GIPR was 0.003 nM. Moreover, in data set [1], the clearance (in general, a measure of how efficiently the substance is removed, as volume per time) came to 7.74 mL/h/kg and the half-life (usually the time in which the quantity being followed falls by half) is 7.7 h.

On to `CC[C@H](C)[C@H](NC(=O)[C@H](CO)NC(=O)[C@H](CC(C)C)NC(=O)[C@H](CC(=O)O)NC(=O)[C@H](CO)NC(=O)[C@@H](NC(=O)[C@H](Cc1ccccc1)NC(=O)[C@@H](NC(=O)CNC(=O)[C@H](Cc1c[nH]cn1)NC(=O)C(C)(C)NC(=O)[C@@H](N)Cc1c[nH]cn1)[C@@H](C)O)[C@@H](C)O)C(=O)NC(C)(CC(C)C)C(=O)N[C@@H](CC(C)C)C(=O)N[C@@H](CCC(=O)O)C(=O)N[C@@H](CCCCNC(=O)COCCOCCNC(=O)COCCOCCNC(=O)CC[C@H](NC(=O)CCCCCCCCCCCCCCCCCCC(=O)O)C(=O)O)C(=O)N[C@@H](CCCCN)C(=O)N[C@@H](C)C(=O)N[C@@H](C)C(=O)N[C@@H](CCC(N)=O)C(=O)N[C@@H](CCC(=O)O)C(=O)N[C@@H](Cc1ccccc1)C(=O)N[C@H](C(=O)N[C@@H](CCC(=O)O)C(=O)N[C@@H](Cc1c[nH]c2ccccc12)C(=O)N[C@@H](CC(C)C)C(=O)N[C@@H](CC(C)C)C(=O)N[C@@H](C)C(=O)NCC(=O)NCC(=O)N1CCC[C@H]1C(=O)N[C@@H](CO)C(=O)N[C@@H](CO)C(=O)NCC(=O)N[C@@H](C)C(=O)N1CCC[C@H]1C(=O)N1CCC[C@H]1C(=O)N1CCC[C@H]1C(=O)N[C@@H](CO)C(N)=O)C(C)C` (stereo partly shown) [Compound 0143] (H-H[Aib]HGTFTSDLSI[ξαMeL]LEK([AEEA-AEEA-γGlu-C20 diacid])KAAQEFVEWLLAGGPSSGAPPPS-NH2), for which, at human GIPR, the EC50 was 0.004 nM. In data set [1], the clearance came out at 2.82 mL/h/kg and the half-life is 13.7 h.

For `CC[C@H](C)[C@H](NC(=O)[C@H](CO)NC(=O)[C@H](Cc1ccc(O)cc1)NC(=O)[C@H](CC(=O)O)NC(=O)[C@H](CO)NC(=O)[C@@H](NC(=O)[C@H](Cc1ccccc1)NC(=O)[C@@H](NC(=O)CNC(=O)[C@H](Cc1c[nH]cn1)NC(=O)C(C)(C)NC(=O)[C@@H](N)Cc1c[nH]cn1)[C@@H](C)O)[C@@H](C)O)C(=O)N[C@@](C)(CC(C)C)C(=O)N[C@@H](CC(C)C)C(=O)N[C@@H](CCC(=O)O)C(=O)N[C@@H](CCCCNC(=O)COCCOCCNC(=O)COCCOCCNC(=O)CC[C@H](NC(=O)CCCCCCCCCCCCCCCCCCC(=O)O)C(=O)O)C(=O)N[C@@H](CCCCN)C(=O)N[C@@H](C)C(=O)N[C@@H](C)C(=O)N[C@@H](CCC(N)=O)C(=O)N[C@@H](CCC(=O)O)C(=O)N[C@@H](Cc1ccccc1)C(=O)N[C@H](C(=O)N[C@@H](CCC(=O)O)C(=O)N[C@@H](Cc1c[nH]c2ccccc12)C(=O)N[C@@H](CC(C)C)C(=O)N[C@@H](CC(C)C)C(=O)N[C@@H](C)C(=O)N[C@H](CCC(=O)O)C(=O)NCC(=O)N1CCC[C@H]1C(=O)N[C@@H](CO)C(=O)N[C@@H](CO)C(=O)NCC(=O)N[C@@H](C)C(=O)N1CCC[C@H]1C(=O)N1CCC[C@H]1C(=O)N1CCC[C@H]1C(=O)N[C@@H](CO)C(N)=O)C(C)C` [Compound 0139], the 50% effective concentration (EC50) on human GIPR was 0.007 nM. In data set [1], the clearance stood at 4.86 mL/h/kg and the half-life is 11.9 h.

For `CC[C@H](C)[C@H](NC(=O)[C@H](CO)NC(=O)[C@H](CC(C)C)NC(=O)[C@H](CC(=O)O)NC(=O)[C@H](CO)NC(=O)[C@@H](NC(=O)[C@H](Cc1ccccc1)NC(=O)[C@@H](NC(=O)CNC(=O)[C@H](Cc1c[nH]cn1)NC(=O)C(C)(C)NC(=O)[C@@H](N)Cc1c[nH]cn1)[C@@H](C)O)[C@@H](C)O)C(=O)N[C@@](C)(CC(C)C)C(=O)N[C@@H](CC(C)C)C(=O)N[C@@H](CCC(=O)O)C(=O)N[C@@H](CCCCNC(=O)COCCOCCNC(=O)COCCOCCNC(=O)CC[C@H](NC(=O)CCCCCCCCCCCCCCCCCCC(=O)O)C(=O)O)C(=O)N[C@@H](CCCCN)C(=O)N[C@@H](C)C(=O)N[C@@H](C)C(=O)N[C@@H](CCC(N)=O)C(=O)N[C@@H](CCC(=O)O)C(=O)N[C@@H](Cc1ccccc1)C(=O)N[C@H](C(=O)N[C@@H](CCC(=O)O)C(=O)N[C@@H](Cc1c[nH]c2ccccc12)C(=O)N[C@@H](CC(C)C)C(=O)N[C@@H](CC(C)C)C(=O)N[C@@H](C)C(=O)N[C@H](CCC(=O)O)C(=O)NCC(=O)N1CCC[C@H]1C(=O)N[C@@H](CO)C(=O)N[C@@H](CO)C(=O)NCC(=O)N[C@@H](C)C(=O)N1CCC[C@H]1C(=O)N1CCC[C@H]1C(=O)N1CCC[C@H]1C(=O)N[C@@H](CO)C(N)=O)C(C)C` [Compound 0142] (H-H[Aib]HGTFTSDLSI[αMeL]LEK([AEEA-AEEA-γGlu-C20 diacid])KAAQEFVEWLLA[dE]GPSSGAPPPS-NH2), the EC50 on human GIPR amounted to 0.007 nM. Moreover, in data set [1], the clearance came to 5.52 mL/h/kg and the half-life was 10.5 h.
